According to patent US20230189805A1, “MULTI-SOLVENT INSECTICIDAL COMPOSITIONS INCLUDING SULFOXIMINE” (CLARKE MOSQUITO CONTROL PRODUCTS, INC., priority 2020, published 2023):

Test system: Culex sp. mosquitos
Experiment: Laboratory test of samples with and without surfactant against Culex sp. mosquitos
Type: in vivo
Procedure: Various amounts of different surfactants were evaluated to determine possible impacts on efficacy. In one set of trials, different amounts of sulfoxaflor were tested with and without a surfactant (Pluronic L92 from BASF).

[1] = sulfoxaflor 0.5 wt.%, surfactant (Pluronic L92) 20 wt.%
[2] = sulfoxaflor 0.5 wt.%, surfactant None
[3] = sulfoxaflor 1 wt.%, surfactant None

CC(c1ccc(C(F)(F)F)nc1)S(C)(=O)=NC#N (centres unmarked) [Sulfoxaflor, sulfoxaflor]
1-hour knockdown [1]: 2% | 24 hour mortality [1]: 64% | 48 hour mortality [1]: 92% | 1-hour knockdown [2]: 0% | 24 hour mortality [2]: 27% | 48 hour mortality [2]: 76% | 72 hour mortality [2]: 86% | 1-hour knockdown [3]: 18% | 24 hour mortality [3]: 62% | 48 hour mortality [3]: 94% | 72 hour mortality [3]: 98%
